Assay results taken from US20250367129A1, “Lipid Compounds and Uses Thereof” (Pfizer Inc., priority 2022, published 2025).

Columns and labels:
[1] = test system: Hela cells; assay: In vitro expression of novel ionizable lipid nanoparticles, high content imaging (CA HA modFlu mRNA); assay type: cell-based; details: LNP with CA HA modFlu mRNA
Procedure: (§1) Plated Hek293T or Hela cells were dosed with lipid nanoparticles in a total volume of 40 μl cell culture media and incubated overnight at 37° C. and 5% CO2. After fixation with 4% paraformaldehyde in PBS cells were washed in PBS containing 0.3% Triton-X100 and 3% BSA (w/v), followed by nuclear staining with Hoechst and antibody staining for the encoded gene of interest. Nuclear count and identification of cells stained positive for gene of interest was done on an Opera Phenix high content imager (PerkinElmer, USA).
(§2) Lipid nanoparticles were prepared and tested according to the general procedures described in U.S. Pat. No. 9,737,619 (PCT Pub. No. WO2015/199952) and U.S. Pat. No. 10,166,298 (PCT Pub. No. WO 2017/075531) and PCT Pub. No. WO2020/146805. The novel ionizable lipids of the invention, cholesterol, distearoylphosphatidylcholine (DSPC) and ALC-0159 2-[(polyethylene glycol)-2000]-N,N ditetradecylacetamide were solubilized in ethanol at a molar ratio of about 46.3:42.7:9.4:1.6. Lipid nanoparticles were made by mixing the lipids containing organic phase with the mRNA containing aqueous phase using an N:P ratio of about 6:1. The mRNA was diluted in buffer. Syringe pumps were used to mix the ethanolic lipid solution with the mRNA aqueous solution. The ethanol was then removed, and the external buffer replaced with another buffer (e.g., Tris) by dialysis. Finally, the lipid nanoparticles were filtered.
(§3) Total RNA concentration and encapsulation efficiency was assessed using the RiboGreen RNA quantitation assay. RNA integrity pre and post formulation was monitored by Agilent Fragment Analyzer capillary gel electrophoresis. Malvern Zetasizer dynamic light scattering (DLS) was used to determine LNP size and polydispersity index (PDI). In vitro expression of the novel ionizable lipid nanoparticles was assessed in HEK293F and Hela cells similar to described in Example 72. Nuclear count and identification of cells stained positive for gene of interest was done on an Opera Phenix high content imager (PerkinElmer, USA).

[2] = test system: HEK293F cells; assay: as above; assay type: cell-based; details: LNP with CA HA modFlu mRNA
Procedure: as §1, §2, §3

[3] = Encapsulation efficiency, RiboGreen RNA quantitation assay (CA HA modFlu mRNA LNPs); assay type: physicochemical; details: LNP with CA HA modFlu mRNA
Procedure: as §2, §3

[4] = LNP size and polydispersity index by Malvern Zetasizer dynamic light scattering (CA HA modFlu mRNA LNPs); assay type: physicochemical; details: DLS; for Size (nm): LNP of the ionizable lipid:cholesterol:DSPC:ALC-0159 about 46.3:42.7:9.4:1.6, N:P about 6:1, CA HA modFlu mRNA; for PDI: LNP with CA HA modFlu mRNA
Procedure: as §2, §3

SMILES: CCCCCCCCCCCCC(CCCCCCC)C(=O)O[C@@H]1CC2(CCN(CCCCO)CC2)C[C@H]1OC(=O)C(CCCCCCC)CCCCCCCCCCCC (mixture of isomers) [Example 60, rac-(2R,3R)-8-(4-hydroxybutyl)-8-azaspiro[4.5]decane-2,3-diyl bis(2-heptyltetradecanoate)]
- EC50 Hela (ng/well) [1]: >50 ng/well
- EC50 Hek293F (ng/well) [2]: 1.6 ng/well
- EE % [3]: 98%
- Size (nm) [4]: 94 nm
- PDI [4]: 0.117

SMILES: CCCCCCCCC(CCCCCC)C(=O)OCC(COC(=O)C(CCCCCC)CCCCCCCC)N1CCC2(CCN(CCCNS(=O)(=O)CC)CC2)CC1 (centres unmarked) [Example 11, 2-(9-(3-(ethylsulfonamido)propyl)-3,9-diazaspiro[5.5]undecan-3-yl)propane-1,3-diyl bis(2-hexyldecanoate)]
- EC50 Hela (ng/well) [1]: 13.8 ng/well
- EC50 Hek293F (ng/well) [2]: 3.7 ng/well
- EE % [3]: 99%
- Size (nm) [4]: 121 nm
- PDI [4]: 0.080

SMILES: CCCCCCCCC(CCCCCCCC)C(=O)O[C@@H]1CC2(CCN(CCCCO)CC2)C[C@H]1OC(=O)C(CCCCCCCC)CCCCCCCC (racemic) [Example 59, rac-(2R,3R)-8-(4-hydroxybutyl)-8-azaspiro[4.5]decane-2,3-diyl bis(2-octyldecanoate)]
- EC50 Hela (ng/well) [1]: 34.6 ng/well
- EC50 Hek293F (ng/well) [2]: 2.3 ng/well
- EE % [3]: 97%
- Size (nm) [4]: 80 nm
- PDI [4]: 0.091

SMILES: CCCCCCCCC(CCCCCCCC)C(=O)OCC(COC(=O)C(CCCCCCCC)CCCCCCCC)N1CCC2(CCN(CCCCO)CC2)CC1 [Example 24, 2-(9-(4-hydroxybutyl)-3,9-diazaspiro[5.5]undecan-3-yl)propane-1,3-diyl bis(2-octyldecanoate)]
- EC50 Hela (ng/well) [1]: 0.72 ng/well
- EC50 Hek293F (ng/well) [2]: 0.48 ng/well
- EE % [3]: 99%
- Size (nm) [4]: 82 nm
- PDI [4]: 0.072

SMILES: CCCCCCCC(CCCCCCC)C(=O)O[C@@H]1CC2(CCN(CCCCCO)CC2)C[C@H]1OC(=O)C(CCCCCCC)CCCCCCC (racemic) [Example 56, rac-(2R,3R)-8-(5-hydroxypentyl)-8-azaspiro[4.5]decane-2,3-diyl bis(2-heptylnonanoate)]
- EC50 Hela (ng/well) [1]: 0.96 ng/well
- EC50 Hek293F (ng/well) [2]: 0.60 ng/well
- EE % [3]: 98%
- Size (nm) [4]: 81 nm
- PDI [4]: 0.063

SMILES: CCCCCCCC(CCCCCCC)C(=O)OCC(COC(=O)C(CCCCCCC)CCCCCCC)N1CCC2(CCN(CCCNc3c(NC)c(=O)c3=O)CC2)CC1 [Example 8, 2-(9-(3-((2-(methylamino)-3,4-dioxocyclobut-1-en-1-yl)amino)propyl)-3,9-diazaspiro[5.5]undecan-3-yl)propane-1,3-diyl bis(2-heptylnonanoate)]
- EC50 Hela (ng/well) [1]: 2.5 ng/well
- EC50 Hek293F (ng/well) [2]: 4.1 ng/well
- EE % [3]: 100%
- Size (nm) [4]: 68 nm
- PDI [4]: 0.101

SMILES: CCCCCCCCC(CCCCCC)C(=O)OCC(COC(=O)C(CCCCCC)CCCCCCCC)N1CC2(CCN(CCCCCO)CC2)C1 (centres unmarked) [Example 49, 2-(7-(5-hydroxypentyl)-2,7-diazaspiro [3.5]nonan-2-yl)propane-1,3-diyl bis(2-hexyldecanoate)]
- EC50 Hela (ng/well) [1]: 1.4 ng/well
- EC50 Hek293F (ng/well) [2]: 0.41 ng/well
- EE % [3]: 99%
- Size (nm) [4]: 160 nm
- PDI [4]: 0.110

SMILES: CCCCCCCCCCCCC(CCCCCCC)C(=O)OCC(COC(=O)C(CCCCCCC)CCCCCCCCCCCC)N1CCC2(CCN(CCCCO)CC2)CC1 (centres unmarked) [Example 31, 2-(9-(4-hydroxybutyl)-3,9-diazaspiro[5.5]undecan-3-yl)propane-1,3-diyl bis(2-heptyltetradecanoate)]
- EC50 Hela (ng/well) [1]: 2.9 ng/well
- EC50 Hek293F (ng/well) [2]: 1.7 ng/well
- EE % [3]: 99%
- Size (nm) [4]: 121 nm
- PDI [4]: 0.150

SMILES: CCCCCCCCC(CCCCCC)CC(=O)OCC(COC(=O)CC(CCCCCC)CCCCCCCC)N1CCC2(CCN(CCCCO)CC2)CC1 (centres unmarked) [Example 28, 2-(9-(4-hydroxybutyl)-3,9-diazaspiro[5.5]undecan-3-yl)propane-1,3-diyl bis(3-hexylundecanoate)]
- EC50 Hela (ng/well) [1]: 6.4 ng/well
- EC50 Hek293F (ng/well) [2]: 9.9 ng/well
- EE % [3]: 99%
- Size (nm) [4]: 96 nm
- PDI [4]: 0.025

SMILES: CCCCCCCCC(CCCCCCC)C(=O)O[C@@H]1CC2(CCN(CCCCO)CC2)C[C@H]1OC(=O)C(CCCCCCC)CCCCCCCC (mixture of isomers) [Example 66, rac-(2R,3R)-8-(4-hydroxybutyl)-8-azaspiro[4.5]decane-2,3-diyl bis(2-heptyldecanoate)]
- EC50 Hela (ng/well) [1]: 2.2 ng/well
- EC50 Hek293F (ng/well) [2]: 1.1 ng/well
- EE % [3]: 97%
- Size (nm) [4]: 78 nm
- PDI [4]: 0.146

SMILES: CCCCCCCCC(CCCCCC)C(=O)OCC(COC(=O)C(CCCCCC)CCCCCCCC)N1CCC2(CCN(CCCCCO)CC2)CC1 (centres unmarked) [Example 5, 2-(9-(5-hydroxypentyl)-3,9-diazaspiro[5.5]undecan-3-yl)propane-1,3-diyl bis(2-hexyldecanoate)]
- EC50 Hela (ng/well) [1]: 4.3 ng/well
- EC50 Hek293F (ng/well) [2]: 1.32 ng/well
- EE % [3]: 100%
- Size (nm) [4]: 136 nm
- PDI [4]: 0.040

SMILES: CCCCCCCCC(CCCCC)C(=O)O[C@@H]1CC2(CCN(CCCCO)CC2)C[C@H]1OC(=O)C(CCCCC)CCCCCCCC (mixture of isomers) [Example 65, rac-(2R,3R)-8-(4-hydroxybutyl)-8-azaspiro[4.5]decane-2,3-diyl bis(2-pentyldecanoate)]
- EC50 Hela (ng/well) [1]: 0.57 ng/well
- EC50 Hek293F (ng/well) [2]: 0.35 ng/well
- EE % [3]: 97%
- Size (nm) [4]: 123 nm
- PDI [4]: 0.038

SMILES: CCCCCCCCC(CC1CCCCC1)C(=O)OCC(COC(=O)C(CCCCCCCC)CC1CCCCC1)N1CCC2(CCN(CCCCO)CC2)CC1 (centres unmarked) [Example 37, 2-(9-(4-hydroxybutyl)-3,9-diazaspiro[5.5]undecan-3-yl)propane-1,3-diyl bis(2-(cyclohexylmethyl)decanoate)]
- EC50 Hela (ng/well) [1]: 0.90 ng/well
- EC50 Hek293F (ng/well) [2]: 0.67 ng/well
- EE % [3]: 99%
- Size (nm) [4]: 143 nm
- PDI [4]: 0.070

SMILES: CCCCCCCCC(CCCC)C(=O)OCC(COC(=O)C(CCCC)CCCCCCCC)N1CCC2(CCN(CCCCO)CC2)CC1 (centres unmarked) [Example 27, 2-(9-(4-hydroxybutyl)-3,9-diazaspiro[5.5]undecan-3-yl)propane-1,3-diyl bis(2-butyldecanoate)]
- EC50 Hela (ng/well) [1]: 12.5 ng/well
- EC50 Hek293F (ng/well) [2]: 35.9 ng/well
- EE % [3]: 97%
- Size (nm) [4]: 74 nm
- PDI [4]: 0.095

SMILES: CCCCCCCCC(CCCCCC)C(=O)OCC(COC(=O)C(CCCCCC)CCCCCCCC)N1CCC2(CCN(CCCCO)C2)C1 (centres unmarked) [Example 33, 2-(7-(4-hydroxybutyl)-2,7-diazaspiro[4.4]nonan-2-yl)propane-1,3-diyl bis(2-hexyldecanoate)]
- EC50 Hela (ng/well) [1]: 0.29 ng/well
- EC50 Hek293F (ng/well) [2]: 0.22 ng/well
- EE % [3]: 99%
- Size (nm) [4]: 115 nm
- PDI [4]: 0.090

SMILES: CCCCCCCCC(CC1CCCC1)C(=O)OCC(COC(=O)C(CCCCCCCC)CC1CCCC1)N1CCC2(CCN(CCCCO)CC2)CC1 (centres unmarked) [Example 32, 2-(9-(4-hydroxybutyl)-3,9-diazaspiro[5.5]undecan-3-yl)propane-1,3-diyl bis(2-(cyclopentylmethyl)decanoate)]
- EC50 Hela (ng/well) [1]: 0.91 ng/well
- EC50 Hek293F (ng/well) [2]: 0.96 ng/well
- EE % [3]: 100%
- Size (nm) [4]: 132 nm
- PDI [4]: 0.060
